# Data reported in PubChem BioAssay AID248 (DTP/NCI, 2004).
# Toxic doses and inconclusive results are not listed.
# System: L1210 leukemia ip in BDF1 mice, survival T/C
# Test: NCI In Vivo Anticancer Drug Screen. Data for tumor model L1210 Leukemia (intraperitoneal) in B6D2F1 (BDF1) mice
# Conditions: endpoint: mean survival time, higher = longer survival
# Method in brief: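 Ratio derived from survival: compound-dosed mice over vehicle-dosed mice, all bearing a transplantable tumor.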
# [1] = dose: 100.0 mg/kg/injection, schedule: Q01DX009 (ip), vehicle: Klucel (hydroxypropylcellulose) (HPC)
# [2] = dose: 200.0 mg/kg/injection, schedule: Q01DX009 (ip), vehicle: Klucel (hydroxypropylcellulose) (HPC)
# [3] = dose: 400.0 mg/kg/injection, schedule: Q01DX009 (ip), vehicle: Klucel (hydroxypropylcellulose) (HPC)
# [4] = dose: 100.0 mg/kg/injection, schedule: Q01DX001 (ip), vehicle: saline
# [5] = dose: 200.0 mg/kg/injection, schedule: Q01DX001 (ip), vehicle: saline
# [6] = dose: 400.0 mg/kg/injection, schedule: Q01DX001 (ip), vehicle: saline
# [7] = dose: 100.0 mg/kg/injection, schedule: Q01DX001 (ip), vehicle: other
# [8] = dose: 200.0 mg/kg/injection, schedule: Q01DX001 (ip), vehicle: other
# [9] = dose: 400.0 mg/kg/injection, schedule: Q01DX001 (ip), vehicle: other
# [10] = dose: 100.0 mg/kg/injection, schedule: Q04DX002 (ip), vehicle: Klucel (hydroxypropylcellulose) (HPC)
# [11] = dose: 200.0 mg/kg/injection, schedule: Q04DX002 (ip), vehicle: Klucel (hydroxypropylcellulose) (HPC)
# [12] = dose: 400.0 mg/kg/injection, schedule: Q04DX002 (ip), vehicle: Klucel (hydroxypropylcellulose) (HPC)
# [13] = dose: 100.0 mg/kg/injection, schedule: Q04DX003 (ip), vehicle: Klucel (hydroxypropylcellulose) (HPC)
# [14] = dose: 200.0 mg/kg/injection, schedule: Q04DX003 (ip), vehicle: Klucel (hydroxypropylcellulose) (HPC)
structure (smiles),measurement,setting,value
COc1ccc(NC(=O)Oc2cc(C)c(Cl)cc2C(C)C)c(OC)c1,T/C,[1],101 % of control
same,T/C,[2],101 % of control
same,T/C,[3],92 % of control
CSc1nc(C)c(Br)c(Sc2nc(N)nc3nc[nH]c23)n1,T/C,"dose: 100.0 mg/kg/injection, schedule: Q01DX Z (ip), vehicle: methylcellulose (MC)",87 % of control
C=CCNC(=S)Nc1ccc(O)cc1,T/C,[1],91 % of control
same,T/C,[2],97 % of control
same,T/C,[3],96 % of control
OC(COc1ccc(Cl)cc1)CN1CCN(c2ccc(Cl)cc2)CC1 (stereo unspecified),T/C,[4],97 % of control
same,T/C,[5],95 % of control
same,T/C,[6],95 % of control
Cc1cnc(Cl)nc1N1CC1,T/C,"dose: 1.0 mg/kg/injection, schedule: Q01DX Z (ip), vehicle: methylcellulose (MC)",91 % of control
CSc1nc2c(=O)[nH]cnc2n1C1OC(CO)C(O)C1O (stereo unspecified),T/C,[4],97 % of control
same,T/C,[5],111 % of control
same,T/C,[6],103 % of control
C=C(C)C(N)=O,T/C,"dose: 100.0 mg/kg/injection, schedule: Q01DX009 (ip), vehicle: saline",102 % of control
same,T/C,"dose: 200.0 mg/kg/injection, schedule: Q01DX009 (ip), vehicle: saline",94 % of control
O=C(Cc1ccccc1)c1ccccn1,T/C,[7],95 % of control
same,T/C,[8],98 % of control
same,T/C,[9],101 % of control
COc1ccc(C(=O)N/N=C/c2cccc3ccccc23)cc1,T/C,[1],105 % of control
same,T/C,[2],103 % of control
same,T/C,[3],108 % of control
COc1ccc(CNCCCCO)cc1,T/C,"dose: 50.0 mg/kg/injection, schedule: Q01DX009 (ip), vehicle: other",106 % of control
same,T/C,[7],104 % of control
same,T/C,"dose: 100.0 mg/kg/injection, schedule: Q01DX009 (ip), vehicle: other",102 % of control
same,T/C,[8],106 % of control
same,T/C,"dose: 200.0 mg/kg/injection, schedule: Q01DX009 (ip), vehicle: other",95 % of control
same,T/C,[9],97 % of control
CC(=O)c1cc([N+](=O)[O-])ccc1O,T/C,[4],90 % of control
same,T/C,[5],97 % of control
same,T/C,[6],90 % of control
O=S1(=O)CC2=C1/C=C/CCCC2,T/C,"dose: 5.0 mg/kg/injection, schedule: Q04DX002 (ip), vehicle: Klucel (hydroxypropylcellulose) (HPC)",90 % of control
same,T/C,"dose: 10.0 mg/kg/injection, schedule: Q01DX001 (ip), vehicle: saline",102 % of control
same,T/C,"dose: 10.0 mg/kg/injection, schedule: Q04DX002 (ip), vehicle: Klucel (hydroxypropylcellulose) (HPC)",96 % of control
COc1ccccc1-n1c(O)c(N=Nc2ccccc2C)c(=O)n(-c2ccc(Br)cc2)c1=S,T/C,"dose: 37.5 mg/kg/injection, schedule: Q01DX001 (ip), vehicle: Klucel (hydroxypropylcellulose) (HPC)",94 % of control
same,T/C,"dose: 75.0 mg/kg/injection, schedule: Q01DX001 (ip), vehicle: Klucel (hydroxypropylcellulose) (HPC)",106 % of control
same,T/C,"dose: 150.0 mg/kg/injection, schedule: Q01DX001 (ip), vehicle: Klucel (hydroxypropylcellulose) (HPC)",87 % of control
C=CCOc1c(Br)cc(Br)cc1Br,T/C,"dose: 12.5 mg/kg/injection, schedule: Q04DX002 (ip), vehicle: Klucel (hydroxypropylcellulose) (HPC)",96 % of control
same,T/C,"dose: 25.0 mg/kg/injection, schedule: Q04DX002 (ip), vehicle: Klucel (hydroxypropylcellulose) (HPC)",100 % of control
same,T/C,"dose: 50.0 mg/kg/injection, schedule: Q04DX002 (ip), vehicle: Klucel (hydroxypropylcellulose) (HPC)",86 % of control
same,T/C,[10],95 % of control
same,T/C,[11],89 % of control
same,T/C,[12],95 % of control
COC(=O)c1n[nH]c(C(C)C)c1N=NN(C)C,T/C,"dose: 50.0 mg/kg/injection, schedule: Q01DX009 (ip), vehicle: saline with Tween-80",116 % of control
same,T/C,"dose: 100.0 mg/kg/injection, schedule: Q04DX003 (ip), vehicle: saline with Tween-80",116 % of control
same,T/C,"dose: 132.0 mg/kg/injection, schedule: Q04DX003 (ip), vehicle: saline with Tween-80",111 % of control
same,T/C,"dose: 200.0 mg/kg/injection, schedule: Q04DX003 (ip), vehicle: saline with Tween-80",119 % of control
same,T/C,"dose: 300.0 mg/kg/injection, schedule: Q04DX003 (ip), vehicle: saline with Tween-80",111 % of control
same,T/C,"dose: 400.0 mg/kg/injection, schedule: Q04DX003 (ip), vehicle: saline with Tween-80",96 % of control
C1C2CC3CC1CC(C2)C31CO1 (stereo unspecified),T/C,[10],90 % of control
same,T/C,[11],90 % of control
same,T/C,[12],105 % of control
Cc1ccc(S/N=C/c2c(O)ccc3ccccc23)cc1,T/C,"dose: 100.0 mg/kg/injection, schedule: Q04DX002 (ip), vehicle: other",91 % of control
same,T/C,"dose: 200.0 mg/kg/injection, schedule: Q04DX002 (ip), vehicle: other",102 % of control
same,T/C,"dose: 400.0 mg/kg/injection, schedule: Q04DX002 (ip), vehicle: other",94 % of control
Nc1nc(N)c2c(Cl)c(CNc3ccc(C(=O)NC(CC(=O)O)CC(=O)O)cc3)ccc2n1,T/C,"dose: 12.5 mg/kg/injection, schedule: Q04DX003 (ip), vehicle: saline",157 % of control
same,T/C,"dose: 25.0 mg/kg/injection, schedule: Q04DX003 (ip), vehicle: saline",178 % of control
same,T/C,"dose: 50.0 mg/kg/injection, schedule: Q04DX003 (ip), vehicle: saline",90 % of control
CCCCCCCCCCCCCCCCNC(=S)Nc1ccc(C(=O)O)cc1,T/C,"dose: 12.0 mg/kg/injection, schedule: Q04DX003 (ip), vehicle: Klucel (hydroxypropylcellulose) (HPC)",94 % of control
same,T/C,"dose: 25.0 mg/kg/injection, schedule: Q04DX003 (ip), vehicle: Klucel (hydroxypropylcellulose) (HPC)",104 % of control
same,T/C,"dose: 50.0 mg/kg/injection, schedule: Q04DX003 (ip), vehicle: Klucel (hydroxypropylcellulose) (HPC)",102 % of control
same,T/C,"dose: 100.0 mg/kg/injection, schedule: Q01DX001 (ip), vehicle: Klucel (hydroxypropylcellulose) (HPC)",95 % of control
same,T/C,[13],96 % of control
same,T/C,"dose: 200.0 mg/kg/injection, schedule: Q01DX001 (ip), vehicle: Klucel (hydroxypropylcellulose) (HPC)",101 % of control
same,T/C,[14],93 % of control
same,T/C,"dose: 400.0 mg/kg/injection, schedule: Q01DX001 (ip), vehicle: Klucel (hydroxypropylcellulose) (HPC)",105 % of control
COc1ccc2c(c1)/C(=C/CCN(C)C)c1ccccc1S2,T/C,"dose: 6.0 mg/kg/injection, schedule: Q01DX Z (ip), vehicle: methylcellulose (MC)",110 % of control
same,T/C,"dose: 6.25 mg/kg/injection, schedule: Q01DX009 (ip), vehicle: carboxymethylcellulose (CMC)",97 % of control
same,T/C,"dose: 12.0 mg/kg/injection, schedule: Q01DX Z (ip), vehicle: methylcellulose (MC)",114 % of control
same,T/C,"dose: 12.5 mg/kg/injection, schedule: Q01DX001 (ip), vehicle: carboxymethylcellulose (CMC)",100 % of control
same,T/C,"dose: 12.5 mg/kg/injection, schedule: Q01DX009 (ip), vehicle: carboxymethylcellulose (CMC)",108 % of control
same,T/C,"dose: 12.5 mg/kg/injection, schedule: Q04DX003 (ip), vehicle: other",105 % of control
same,T/C,"dose: 15.0 mg/kg/injection, schedule: Q01DX Z (ip), vehicle: methylcellulose (MC)",104 % of control
same,T/C,"dose: 20.0 mg/kg/injection, schedule: Q01DX Z (ip), vehicle: methylcellulose (MC)",119 % of control
same,T/C,"dose: 25.0 mg/kg/injection, schedule: Q01DX001 (ip), vehicle: carboxymethylcellulose (CMC)",100 % of control
same,T/C,"dose: 25.0 mg/kg/injection, schedule: Q04DX003 (ip), vehicle: other",101 % of control
same,T/C,"dose: 50.0 mg/kg/injection, schedule: Q01DX001 (ip), vehicle: carboxymethylcellulose (CMC)",114 % of control
CCCCCCCCC(O)CCCC (stereo unspecified),T/C,[1],93 % of control
same,T/C,[13],97 % of control
same,T/C,[2],98 % of control
same,T/C,[14],105 % of control
same,T/C,[3],95 % of control
same,T/C,"dose: 400.0 mg/kg/injection, schedule: Q04DX003 (ip), vehicle: Klucel (hydroxypropylcellulose) (HPC)",100 % of control
Cc1ccc(S(=O)(=O)N/N=c2\cc(C)c3ccccc3n2C)cc1,T/C,"dose: 100.0 mg/kg/injection, schedule: Q04DX003 (ip), vehicle: gum acacia",95 % of control
same,T/C,"dose: 200.0 mg/kg/injection, schedule: Q04DX003 (ip), vehicle: gum acacia",94 % of control
same,T/C,"dose: 400.0 mg/kg/injection, schedule: Q04DX003 (ip), vehicle: gum acacia",93 % of control
CCN(CC)CCSSCCN(CC)CC,T/C,"dose: 50.0 mg/kg/injection, schedule: Q01DX001 (ip), vehicle: saline",88 % of control
same,T/C,[4],96 % of control
CCOC(=O)c1cc2c3n(c1=O)CCCC3C(c1ccc(Cl)c(Cl)c1)OC2=O (stereo unspecified),T/C,[4],97 % of control
same,T/C,[5],104 % of control
same,T/C,[6],92 % of control
